According to patent publication US12071408B2, “Multi-targeted tyrosine kinase inhibitors effective in antitumor uses” (Shanghai AB PharmaTech Ltd., priority 2021, dated 2024):
Like-named read-outs stand apart in the source and are kept apart here.

Tests used:
[1] = target: VEGFR-2 (KDR) (Homo sapiens (Human), UniProt P35968); experiment: Kinase inhibition, Mobility-Shift Assay; assay type: biochemical; conditions: class; read-out: KDR activity effect range (IC50)
[2] = test system: hepatocellular carcinoma cell line (Hep3B 2.1-7); experiment: Tumor cell proliferation inhibition (CTG, 72 h); assay type: cell-based; conditions: Hep3B 2.1-7 cells, class, read-out: Hep3B 2.1-7 range of activity (IC50)
[3] = test system: thyroid cancer cell line (TT); experiment: Tumor cell proliferation inhibition (CTG, 72 h); assay type: cell-based; conditions: TT cells, class, read-out: TT range of activity (IC50)
[4] = target: EGFR (Homo sapiens (Human), UniProt P00533); experiment: Kinase inhibition, Mobility-Shift Assay; assay type: biochemical; conditions: class; read-out: EGFR range of activity (IC50)
[5] = target: C-MET (Homo sapiens (Human), UniProt P08581); experiment: Kinase inhibition, Mobility-Shift Assay; assay type: biochemical; conditions: class; read-out: C-MET range of activity (IC50)
[6] = test system: leukemia cell line (K562); experiment: Tumor cell proliferation inhibition (CTG, 72 h); assay type: cell-based; conditions: K562 cells, class, read-out: K562 activity effect range (IC50)
[7] = target: FGFR2 (Homo sapiens (Human), UniProt P21802); experiment: Kinase inhibition, Mobility-Shift Assay; assay type: biochemical; conditions: class; read-out: FGFR2 range of activity effects (IC50)
[8] = target: FGFR4 (Homo sapiens (Human), UniProt P22455); experiment: Kinase inhibition, Mobility-Shift Assay; assay type: biochemical; conditions: class; read-out: FGFR4 range of activity effects (IC50)
[9] = test system: cervical cancer cell line (Hela); experiment: Tumor cell proliferation inhibition (CTG, 72 h); assay type: cell-based; conditions: Hela cells, class, read-out: Hela activity effect range (IC50)
[10] = test system: bladder cancer cell line (RT112/84); experiment: Tumor cell proliferation inhibition (CTG, 72 h); assay type: cell-based; conditions: RT112/84 cells, class, read-out: RT112/84 range of activity (IC50)

Sequence of FGFR4 (P22455 22-802): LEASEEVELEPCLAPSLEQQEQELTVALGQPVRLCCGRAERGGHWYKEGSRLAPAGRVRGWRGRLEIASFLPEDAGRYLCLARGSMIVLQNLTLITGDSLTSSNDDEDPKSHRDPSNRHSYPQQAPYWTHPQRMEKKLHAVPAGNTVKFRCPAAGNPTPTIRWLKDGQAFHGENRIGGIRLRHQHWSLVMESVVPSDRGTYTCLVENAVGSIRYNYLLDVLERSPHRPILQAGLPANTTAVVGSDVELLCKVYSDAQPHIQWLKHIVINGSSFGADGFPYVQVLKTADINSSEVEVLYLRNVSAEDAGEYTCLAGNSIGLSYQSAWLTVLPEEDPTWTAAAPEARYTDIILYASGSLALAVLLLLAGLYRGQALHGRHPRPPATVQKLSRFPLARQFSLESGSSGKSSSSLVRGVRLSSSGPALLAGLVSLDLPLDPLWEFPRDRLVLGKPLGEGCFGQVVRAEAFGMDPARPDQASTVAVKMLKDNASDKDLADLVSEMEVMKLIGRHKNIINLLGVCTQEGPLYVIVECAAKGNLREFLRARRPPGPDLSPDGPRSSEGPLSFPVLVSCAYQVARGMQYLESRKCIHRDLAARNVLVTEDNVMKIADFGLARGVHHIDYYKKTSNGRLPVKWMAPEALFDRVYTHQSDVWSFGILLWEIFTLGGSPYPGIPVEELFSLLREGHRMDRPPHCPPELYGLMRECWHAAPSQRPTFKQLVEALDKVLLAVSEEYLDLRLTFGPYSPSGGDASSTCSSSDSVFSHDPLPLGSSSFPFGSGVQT
Sequence of FGFR2 (P21802 22-821): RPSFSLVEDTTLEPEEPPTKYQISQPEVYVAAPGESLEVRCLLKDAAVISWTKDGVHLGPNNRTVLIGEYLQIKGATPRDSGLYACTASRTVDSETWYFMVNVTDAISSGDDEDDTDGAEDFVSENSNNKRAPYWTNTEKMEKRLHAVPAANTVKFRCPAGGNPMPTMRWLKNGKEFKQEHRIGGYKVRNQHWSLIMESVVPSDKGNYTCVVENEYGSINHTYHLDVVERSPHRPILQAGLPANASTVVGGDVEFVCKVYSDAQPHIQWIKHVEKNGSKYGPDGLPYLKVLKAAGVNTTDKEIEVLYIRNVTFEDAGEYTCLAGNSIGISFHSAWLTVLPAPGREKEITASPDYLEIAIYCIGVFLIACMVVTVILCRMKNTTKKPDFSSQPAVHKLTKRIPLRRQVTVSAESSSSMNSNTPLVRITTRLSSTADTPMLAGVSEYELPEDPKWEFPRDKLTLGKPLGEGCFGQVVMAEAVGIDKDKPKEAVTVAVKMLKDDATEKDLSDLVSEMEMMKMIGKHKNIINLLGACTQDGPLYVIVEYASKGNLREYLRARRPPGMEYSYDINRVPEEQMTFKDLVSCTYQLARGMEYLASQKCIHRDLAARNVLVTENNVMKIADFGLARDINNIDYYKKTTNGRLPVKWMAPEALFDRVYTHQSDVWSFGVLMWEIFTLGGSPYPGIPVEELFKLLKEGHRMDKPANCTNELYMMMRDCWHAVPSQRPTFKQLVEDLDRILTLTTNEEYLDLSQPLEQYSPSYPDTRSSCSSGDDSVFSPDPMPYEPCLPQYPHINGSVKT
Sequence of VEGFR-2 (KDR) (P35968 20-1356): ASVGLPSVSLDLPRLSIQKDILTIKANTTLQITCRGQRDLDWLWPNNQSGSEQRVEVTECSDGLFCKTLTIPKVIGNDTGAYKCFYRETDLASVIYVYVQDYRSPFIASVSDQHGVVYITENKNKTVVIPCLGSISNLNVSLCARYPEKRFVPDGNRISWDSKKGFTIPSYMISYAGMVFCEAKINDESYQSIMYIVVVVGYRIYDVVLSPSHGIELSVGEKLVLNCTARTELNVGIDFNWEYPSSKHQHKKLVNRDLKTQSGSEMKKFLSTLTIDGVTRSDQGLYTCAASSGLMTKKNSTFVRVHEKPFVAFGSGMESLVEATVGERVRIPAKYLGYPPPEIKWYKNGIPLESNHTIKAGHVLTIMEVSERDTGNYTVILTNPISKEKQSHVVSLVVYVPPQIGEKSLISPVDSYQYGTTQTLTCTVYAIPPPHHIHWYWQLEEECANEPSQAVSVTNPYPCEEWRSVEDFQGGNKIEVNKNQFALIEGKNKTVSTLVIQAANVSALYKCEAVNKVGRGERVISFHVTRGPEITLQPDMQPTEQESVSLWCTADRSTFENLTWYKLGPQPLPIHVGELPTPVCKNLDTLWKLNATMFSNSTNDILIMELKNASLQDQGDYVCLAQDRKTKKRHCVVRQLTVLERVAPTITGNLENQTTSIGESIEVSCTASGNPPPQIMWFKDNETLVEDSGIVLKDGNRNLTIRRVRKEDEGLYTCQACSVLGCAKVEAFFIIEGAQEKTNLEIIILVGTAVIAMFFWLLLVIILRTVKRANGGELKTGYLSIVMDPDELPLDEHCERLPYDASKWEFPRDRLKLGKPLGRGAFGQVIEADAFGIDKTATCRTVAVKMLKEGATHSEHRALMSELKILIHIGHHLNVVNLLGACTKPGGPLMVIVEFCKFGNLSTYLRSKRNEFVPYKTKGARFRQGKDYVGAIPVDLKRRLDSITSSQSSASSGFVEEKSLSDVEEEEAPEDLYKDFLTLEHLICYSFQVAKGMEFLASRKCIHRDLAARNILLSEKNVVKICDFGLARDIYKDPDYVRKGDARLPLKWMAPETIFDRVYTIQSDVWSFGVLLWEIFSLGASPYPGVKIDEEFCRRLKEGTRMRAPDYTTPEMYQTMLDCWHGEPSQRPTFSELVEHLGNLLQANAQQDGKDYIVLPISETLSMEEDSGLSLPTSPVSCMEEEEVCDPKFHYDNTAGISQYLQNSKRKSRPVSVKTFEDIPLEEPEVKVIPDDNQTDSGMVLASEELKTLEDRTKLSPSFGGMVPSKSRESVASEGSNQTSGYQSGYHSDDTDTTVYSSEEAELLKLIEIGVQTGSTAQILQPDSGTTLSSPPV
Sequence of C-MET (P08581 25-1390): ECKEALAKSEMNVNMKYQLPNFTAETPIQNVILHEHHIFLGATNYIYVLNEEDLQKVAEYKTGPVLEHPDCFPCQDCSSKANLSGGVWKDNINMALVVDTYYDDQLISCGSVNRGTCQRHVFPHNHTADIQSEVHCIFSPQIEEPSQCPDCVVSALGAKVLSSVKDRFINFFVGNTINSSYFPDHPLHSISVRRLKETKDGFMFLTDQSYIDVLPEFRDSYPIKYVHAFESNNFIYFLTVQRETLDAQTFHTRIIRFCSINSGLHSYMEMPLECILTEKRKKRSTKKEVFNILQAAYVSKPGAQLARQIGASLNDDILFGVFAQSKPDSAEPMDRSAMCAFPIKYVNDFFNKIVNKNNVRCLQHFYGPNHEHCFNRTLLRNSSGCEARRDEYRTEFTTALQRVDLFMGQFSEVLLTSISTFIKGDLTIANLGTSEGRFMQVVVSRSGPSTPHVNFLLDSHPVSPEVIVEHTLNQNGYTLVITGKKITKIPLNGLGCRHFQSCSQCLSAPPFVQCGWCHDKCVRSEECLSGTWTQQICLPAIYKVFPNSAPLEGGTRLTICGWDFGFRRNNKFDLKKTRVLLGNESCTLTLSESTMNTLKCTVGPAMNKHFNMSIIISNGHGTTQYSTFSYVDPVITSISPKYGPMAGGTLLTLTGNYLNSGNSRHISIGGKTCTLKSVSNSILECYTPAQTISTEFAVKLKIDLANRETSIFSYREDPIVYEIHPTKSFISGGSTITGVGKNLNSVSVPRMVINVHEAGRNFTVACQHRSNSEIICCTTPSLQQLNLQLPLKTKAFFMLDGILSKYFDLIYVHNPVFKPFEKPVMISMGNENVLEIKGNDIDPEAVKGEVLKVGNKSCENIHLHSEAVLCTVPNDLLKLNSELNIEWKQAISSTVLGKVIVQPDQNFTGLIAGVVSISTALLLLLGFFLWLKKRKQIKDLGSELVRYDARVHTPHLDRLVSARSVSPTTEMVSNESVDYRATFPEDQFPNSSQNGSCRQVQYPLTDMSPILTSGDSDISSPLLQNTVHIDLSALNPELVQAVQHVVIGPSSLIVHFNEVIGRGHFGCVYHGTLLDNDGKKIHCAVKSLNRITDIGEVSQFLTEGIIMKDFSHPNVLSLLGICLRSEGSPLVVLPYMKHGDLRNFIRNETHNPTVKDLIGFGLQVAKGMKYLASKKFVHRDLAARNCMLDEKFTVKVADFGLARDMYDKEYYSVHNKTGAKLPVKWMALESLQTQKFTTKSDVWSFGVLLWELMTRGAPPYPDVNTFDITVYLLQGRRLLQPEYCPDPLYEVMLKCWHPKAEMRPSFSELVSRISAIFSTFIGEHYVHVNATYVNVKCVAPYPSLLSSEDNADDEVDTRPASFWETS

| Structure (SMILES) | IC50 [1] [µM] | IC50 ([2]; Homo sapiens) [µM] | IC50 ([3]; Homo sapiens) [µM] | IC50 [4] [µM] | IC50 [5] [µM] | IC50 ([6]; Homo sapiens) [µM] | IC50 [7] [µM] | IC50 [8] [µM] | IC50 ([9]; Homo sapiens) [µM] | IC50 ([10]; Homo sapiens) [µM] | IC50 [2] [µM] | IC50 [3] [µM] | IC50 [6] [µM] | IC50 [9] [µM] | IC50 [10] [µM] |
| --- | --- | --- | --- | --- | --- | --- | --- | --- | --- | --- | --- | --- | --- | --- | --- |
| COc1cc2nccc(Oc3c(Br)cc(NC(=O)NC4CC4)c(Cl)c3F)c2cc1C(N)=O [III-18] | > 0.01 | > 5 | > 10 | > 0.1 | > 0.1 | > 10 | > 0.1 | > 0.1 | > 10 | > 1 |  |  |  |  |  |
| COc1cc2nccc(Oc3c(F)cc(NC(=O)NC4CC4)c(N(C)C)c3F)c2cc1C(N)=O [III-46] | > 0.01 | > 5 | > 10 | > 0.1 | > 0.1 | > 10 | > 0.1 | > 0.1 | > 10 | > 1 |  |  |  |  |  |
| COc1cc2nccc(Oc3c(F)cc(NC(=O)N(C)C(C)C)c(Cl)c3F)c2cc1C(N)=O [III-02] | > 0.01 | > 5 | > 10 | > 0.1 | > 0.1 | > 10 | > 0.1 | > 0.1 | > 10 | > 1 |  |  |  |  |  |
| COc1cc2nccc(Oc3c(F)c(N(C)C)c(NC(=O)NC4CC4)c(N(C)C)c3F)c2cc1C(N)=O [III-52] | > 0.01 | > 5 | > 10 | > 0.1 | > 0.1 | > 10 | > 0.1 | > 0.1 | > 10 | > 1 |  |  |  |  |  |
| COc1cc2nccc(Oc3c(F)cc(NC(=O)NC4CC4)c(Cl)c3N(C)C)c2cc1C(N)=O [III-49] | > 0.01 | > 5 | > 10 | > 0.1 | > 0.1 | > 10 | > 0.1 | > 0.1 | > 10 | > 1 |  |  |  |  |  |
| COc1cc2nccc(Oc3c(F)cc(NC(=O)NC4CC(O)C4)c(Cl)c3F)c2cc1C(N)=O (stereo not drawn) [III-30] | > 0.01 |  |  | > 0.1 | > 0.1 |  | > 0.1 | > 0.1 |  |  | > 5 | > 10 | > 10 | > 10 | > 1 |
| COc1cc2nccc(Oc3c(F)cc(NC(=O)NC(C)(C)C)c(Cl)c3F)c2cc1C(N)=O [III-04] | > 0.01 | > 5 | > 10 | > 0.1 | > 0.1 | > 10 | > 0.1 | > 0.1 | > 10 | > 1 |  |  |  |  |  |
| COc1cc2nccc(Oc3c(F)cc(NC(=O)NC4CCOCC4)c(Cl)c3F)c2cc1C(N)=O [III-28] | > 0.01 | > 5 | > 10 | > 0.1 | > 0.1 | > 10 | > 0.1 | > 0.1 | > 10 | > 1 |  |  |  |  |  |
| COc1cc2nccc(Oc3c(F)c(F)c(NC(=O)NC4CC4)c(N(C)C)c3F)c2cc1C(N)=O [III-50] | > 0.01 | > 5 | > 10 | > 0.1 | > 0.1 | > 10 | > 0.1 | > 0.1 | > 10 | > 1 |  |  |  |  |  |
| C=CC1CC1(NC(=O)Nc1cc(F)c(Oc2ccnc3cc(OC)c(C(N)=O)cc23)c(F)c1Cl)C(=O)NC1CC1 (stereo not drawn) [III-37] | > 0.01 | > 5 | > 10 | > 0.1 | > 0.1 | > 10 | > 0.1 | > 0.1 | > 10 | > 1 |  |  |  |  |  |
| COc1cc2nccc(Oc3c(F)c(F)c(NC(=O)NC4CC4)c(OC)c3F)c2cc1C(N)=O [III-51] | > 0.01 | > 5 | > 10 | > 0.1 | > 0.1 | > 10 | > 0.1 | > 0.1 | > 10 | > 1 |  |  |  |  |  |
| COc1cc2nccc(Oc3c(F)cc(NC(=O)NC[C@H](C)O)c(Cl)c3F)c2cc1C(N)=O [III-09] | > 0.01 | > 5 | > 10 | > 0.1 | > 0.1 | > 10 | > 0.1 | > 0.1 | > 10 | > 1 |  |  |  |  |  |
| COc1cc2nccc(Oc3c(F)cc(NC(=O)NC(CO)CO)c(Cl)c3F)c2cc1C(N)=O [III-13] | > 0.01 | > 5 | > 10 | > 0.1 | > 0.1 | > 10 | > 0.1 | > 0.1 | > 10 | > 1 |  |  |  |  |  |
| COc1cc2nccc(Oc3c(F)cc(NC(=O)NC[C@H](O)CO)c(Cl)c3F)c2cc1C(N)=O [III-14] | > 0.01 | > 5 | > 10 | > 0.1 | > 0.1 | > 10 | > 0.1 | > 0.1 | > 10 | > 1 |  |  |  |  |  |
| COc1cc2nccc(Oc3c(F)c(F)c(NC(=O)NC4CC4)c(F)c3F)c2cc1C(N)=O [III-36] | > 0.01 | > 5 | > 10 | > 0.1 | > 0.1 | > 10 | > 0.1 | > 0.1 | > 10 | > 1 |  |  |  |  |  |
| COc1cc2nccc(Oc3c(F)cc(NC(=O)NC4CC(O)C4)c(Cl)c3F)c2cc1C(N)=O (stereo not drawn) [III-29] | > 0.01 | > 5 | > 10 | > 0.1 | > 0.1 | > 10 | > 0.1 | > 0.1 | > 10 | > 1 |  |  |  |  |  |
| COc1cc2nccc(Oc3c(F)cc(NC(=O)NC4CC4(F)F)c(F)c3F)c2cc1C(N)=O (stereo not drawn) [III-23] | > 0.01 | > 5 | > 10 | > 0.1 | > 0.1 | > 10 | > 0.1 | > 0.1 | > 10 | > 1 |  |  |  |  |  |
| COc1cc2nccc(Oc3c(F)cc(NC(=O)NC4(C)CC4)c(Cl)c3F)c2cc1C(N)=O [III-22] | > 0.01 | > 5 | > 10 | > 0.1 | > 0.1 | > 10 | > 0.1 | > 0.1 | > 10 | > 1 |  |  |  |  |  |
